These results are taken from patent publication US12528792B2, “Sulfonamide compounds and the use thereof in the treatment of cancer” (TROBIO THERAPEUTICS PTY LTD, priority 2019, dated 2026).

The structures appear in SMILES notation. Where two headings read alike, the source gives them in different places.

Format in all cases: cell-based
The subject of assay [1] is SK-N-SH neuroblastoma cells. The assay can be described thus: Cytotoxicity assay, MTS viability. The conditions noted are these: Homo sapiens, 72 hours. As for the experimental part: The ability of compounds of the disclosure to inhibit the proliferation of SK—N—SH neuroblastoma cells was assessed. The SK—N—SH cell line was maintained as a monolayer in Dulbeccos Modified Eagles medium (DMEM) supplemented with 10% foetal bovine serum (FBS) and grown at 37° C. in a humidified atmosphere with 5% CO2. For the cytotoxicity assay, SK—N—SH cells were seeded at a density of 2×10^3 cells per well in 96-well plates. The cells were treated with serial dilutions of the test compounds (1:2 starting concentration 100 µM) and viability measured after 72 hours using a standard MTS assay. Cell viability was normalised to control (vehicle alone) and dose response curves and EC50 values (Table 3) were determined using Graph Pad Prism 6.

The test system of assay [2] is A2780 ovarian cancer cells. The assay can be described thus: In vitro growth inhibition assay, Alamar Blue, single agent IC50. The conditions noted are these: Homo sapiens. As for the experimental part:
(§1) In vitro growth inhibition assays were performed as technical triplicate in two independent experiments and cell viability was assessed by Alamar Blue assay readout. Briefly, cells in logarithmic phase growth were seeded in 384-well plates in a 50 μL/well assay volume. Cells were seeded at 1,200 cells/well using a Multidrop 384 (Thermo Scientific) and allowed to adhere at 37° C. with 5% CO2, in a humidified atmosphere (LiCONIC incubator). After 24 hours incubation, test compounds, positive control (20 μM Thonzonium bromide, 100% kill) and vehicle only (0.4% DMSO) were added into wells of each assay plate using a Tecan HP D300 Digital Dispenser in technical triplicate under minimum light. Following 72 hours drug exposure, metabolic activity was detected by addition of 10% (v/v) Alamar Blue reagent to each assay well using a Multidrop Cambi (Thermo Scientific) and determined by measurement of fluorescence intensity (excitation 555 nm, emission 585 nm) using an EnSpire (Perkin Elmer) plate reader. Readings were performed at 0 hour (background) and after 6 hours alamar blue incubation at 37° C.
Each drug was tested as a 10-point concentration series with two-fold serial dilutions of each drug. The concentration series for compounds 6 and 8 was 100, 50, 25, 12.5, 6.25, 3.125, 1.563, 0.781, 0.391 and 0.195 μM and for compounds 24, 43 and 48 was 50, 25, 12.5, 6.25, 3.125, 1.563, 0.781, 0.391, 0.195 and 0.098 μM for the two independent experiments. The concentration series for vinorelbine and paclitaxel was 100, 50, 25, 12.5, 6.25, 3.125, 1.5625, 0.781, 0.391 and 0.195 nM. Thonzonium bromide (20 μM) and 0.4% DMSO were used as positive and vehicle controls, respectively. The IC50 value was calculated by derivation of the best-fit line using a sigmoidal dose response model (Activity Base Software Suite, IDES).
Activity Base software suite (IDES, version 8.3.0.175) was used for data analysis. Cell survival is expressed as a percentage of viable cells. IC50 concentrations were calculated by derivation of the best-fit line using a sigmoidal dose response model with technical triplicate data points.
Background: Alamar Blue is a resazurin reagent that responds to reducing activity.

For the next assay, the system named is A549 (NSCLC) cells. Nature of the assay: Anti-proliferative activity, Cell-Titre luminescent viability assay. The conditions noted are these: Homo sapiens, 72 h exposure, Cell-Titre luminescent reagent. In outline:
(§2)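 Cells attached 24 h at 37° C., 5% CO2, then treated 72 h with compound at 0.3–100 μM or 0.1–30 μM. Viability read by Cell-Titre luminescence after 30 min reagent exposure, normalized to vehicle; EC50 from variable-slope sigmoidal nonlinear regression.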

A further assay has as its system A2780 (ovarian) cells. The assay is described as above. The conditions noted are these: Homo sapiens, 72 h exposure, Cell-Titre luminescent reagent. The essentials:
as §2

For assay [3], the system named is A2780 ovarian cancer cells. The assay can be described thus: Drug combination screen, 6x6 dose matrix, Bliss-independence synergy. On the set-up: key to Max. Synergy, Vinorelbine: Bliss synergy score; 0 = no synergy, negative = antagonism; highest in matrix; key to Total Synergy, Vinorelbine: sum of Bliss synergy scores across the dose matrix. The conditions noted are these: 72 h (26*: 96-well plate format); for Max. Synergy, Paclitaxel / Total Synergy, Paclitaxel: combination with paclitaxel; for Max. Synergy, Paclitaxel / Max. Synergy, Vinorelbine: Bliss score; for Total Synergy, Paclitaxel / Total Synergy, Vinorelbine: sum of Bliss scores of the matrix; for Max. Synergy, Vinorelbine / Total Synergy, Vinorelbine: combination with vinorelbine. As for the experimental part:
as §1
The two drugs in each combination matrix were dispensed using a Tecan HP D300 Digital Dispenser. Assays were performed in triplicate for each drug combination (test compound/vinorelbine and test compound/paclitaxel combinations). Synergistic drug interactions were calculated from the averaged cell viability data using the methodology described below.
Synergistic drug interactions were determined for each pa1rw1se drug combination by applying the Bliss-independence model that assumes independence of drug mechanisms. Prior to the analysis, percent cell viability (CV) for combination data were converted to fractional cell growth inhibition (GI) by the formula: […]
The Bliss additivism model was used to calculate a predicted combined response C to two single agents with responses A and B (using GI values), as follows:
The final score for any combination was reported as the difference between the value predicted by the additive model and the experimentally observed value, normalised to 100. Using GI values the maximum possible synergy score is 100, with 0 indicating no synergy and negative indicating possible antagonism. Scores were also reported as a “Max synergy” score, which is the highest individual synergy score for each combination matrix, and a “Total synergy” score, which was obtained by summation of each individual synergy score for the matrix.
The single agent IC50 values for the test compounds and their synergy scores in combination with vinorelbine and paclitaxel are presented in Table 4. The data is listed as IC50 mean from technical triplicates for two independent experiments. The averaged IC50 concentrations for the single agents from both runs were then used to generate the 6×6 dose matrices in the synergy experiment. Synergy scores for each drug combination were calculated by the Bliss-independence model. The maximum synergy and total synergy scores for each combination in A2780 cells are listed.

Setting [4] is: 72 h drug exposure, Alamar Blue, 384-well (26*: 96-well plate format), read-out: Single-agent IC50.
Where [5] appears, read: single agent, 96-well plate format, read-out: Dose matrix IC50 concentrations.

`CCC(C)c1ccc(NC(=O)C2CCN(S(=O)(=O)c3ccc4[nH]ccc4c3)CC2)cc1` (stereo not shown) [Compound 6, 1-((1H-indol-5-yl)sulfonyl)-N-(4-(sec-butyl)phenyl)piperidine-4-carboxamide]: the IC50 in assay [1] was found to be 5.66 µM. In assay [2] (setting [4]), the IC50 came to 12 µM. For the same compound, the IC50 in the assay on A549 (NSCLC) cells is 24.9 µM. The compound also showed an IC50 in the assay with A2780 (ovarian) cells of 15.1 µM. For the same compound, in assay [3], the “Max. Synergy, Paclitaxel” value came out at 6.78; the “Total Synergy, Paclitaxel” value is recorded as −46.04; the “Max. Synergy, Vinorelbine” value turned out to be 42.36; the “Total Synergy, Vinorelbine” value was 250.66.
On to `O=C(Nc1ccc(C(F)(F)F)cc1)C1CCN(S(=O)(=O)c2ccc3[nH]ccc3c2)CC1` [Compound 8, 1-((1H-indol-5-yl)sulfonyl)-N-(4-(trifluoromethyl)phenyl)piperidine-4-carboxamide], for which the IC50 in assay [1] turned out to be 11.4 µM; in assay [2] (setting [4]) it was 14.5 µM; in the assay on A549 (NSCLC) cells, 12.1 µM; in the assay on A2780 (ovarian) cells, 11.7 µM. In assay [3], the “Max. Synergy, Paclitaxel” value is listed as 8.95. For the same compound, the “Total Synergy, Paclitaxel” value in assay [3] is given as −3.62. Further, the “Max. Synergy, Vinorelbine” value in assay [3] is on record as 32.29. In addition, the “Total Synergy, Vinorelbine” value in assay [3] turned out to be 225.43.
As for `Cc1ccc(NC(=O)c2ccn(S(=O)(=O)c3ccc4[nH]ccc4c3)c2)cc1` [Compound 43, 1-((1H-indol-5-yl)sulfonyl)-N-(p-tolyl)-1H-pyrrole-3-carboxamide], the IC50 in assay [1] is 17.4 µM. Besides, the IC50 in assay [2] (setting [4]) came to 13 µM. In addition, the IC50 with A549 (NSCLC) cells was found to be 18 µM. The IC50 in the assay on A2780 (ovarian) cells was 1.9 µM. In assay [3], the “Max. Synergy, Paclitaxel” value is 12.46; the “Total Synergy, Paclitaxel” value is 3.06; the “Max. Synergy, Vinorelbine” value was 10.94; the “Total Synergy, Vinorelbine” value is reported as 73.13.
The compound `O=C(Nc1ccc(F)cc1)c1ccn(S(=O)(=O)c2ccc3[nH]ccc3c2)c1` [Compound 48, 1-((1H-indol-5-yl)sulfonyl)-N-(4-fluorophenyl)-1H-pyrrole-3-carboxamide] came in with an IC50 in assay [1] of 7.56 µM. In addition, in assay [2] (setting [4]), the IC50 worked out at 14.9 µM. The IC50 in the assay on A549 (NSCLC) cells was determined as 3.3 µM. This compound showed an IC50 with A2780 (ovarian) cells of 2.5 µM. Besides, in assay [3], the “Max. Synergy, Paclitaxel” value is given as 31.55; the “Total Synergy, Paclitaxel” value was found to be 263.84; the “Max. Synergy, Vinorelbine” value came to 17.28; the “Total Synergy, Vinorelbine” value came to 68.74.
For `CC(C)(C)c1ccc(NC(=O)c2ccn(S(=O)(=O)c3ccc4[nH]ccc4c3)c2)cc1` [Compound 100, 1-((1H-indol-5-yl)sulfonyl)-N-(4-(tert-butyl)phenyl)-1H-pyrrole-3-carboxamide], the IC50 in assay [1] came to 7.51 µM; in the assay on A549 (NSCLC) cells it was 11 µM; in the assay on A2780 (ovarian) cells, 8.87 µM.
For the compound `CC(C)c1ccc(NC(=O)c2ccn(S(=O)(=O)c3ccc4[nH]ccc4c3)n2)cc1` [Compound 107, 1-((1H-indol-5-yl)sulfonyl)-N-(4-isopropylphenyl)-1H-pyrazole-3-carboxamide], the results for the IC50 (in assay [1]; in the assay on A549 (NSCLC) cells; in the assay on A2780 (ovarian) cells) were 6.22 µM, 6.58 µM and 8.11 µM, respectively.
In the same order, the values of `CC(C)c1ccc(NC(=O)c2ccn(S(=O)(=O)c3ccc4[nH]ccc4c3)n2)cc1F` [Compound 108, 1-((1H-indol-5-yl)sulfonyl)-N-(3-fluoro-4-isopropylphenyl)-1H-pyrazole-3-carboxamide] are 9.71 µM, 4.09 µM and 8.71 µM.
For `CCCc1ccc(NC(=O)c2ccn(S(=O)(=O)c3ccc4[nH]ccc4c3)n2)cc1` [Compound 109, 1-((1H-indol-5-yl)sulfonyl)-N-(4-propylphenyl)-1H-pyrazole-3-carboxamide], the IC50 in assay [1] turned out to be 11 µM; in the assay on A549 (NSCLC) cells it was 5.53 µM; with A2780 (ovarian) cells, 8.65 µM.
In the case of `CC(C)(C)c1ccc(NC(=O)c2ccn(S(=O)(=O)c3ccc4[nH]ccc4c3)n2)cc1` [Compound 113, 1-((1H-indol-5-yl)sulfonyl)-N-(4-(tert-butyl)phenyl)-1H-pyrazole-3-carboxamide], the IC50 was determined as 9.41 µM in assay [1], 7.22 µM with A549 (NSCLC) cells and 8.37 µM with A2780 (ovarian) cells.
Take `CC(=O)O[C@H]1C(=O)[C@@]2(C)[C@H]([C@H](OC(=O)c3ccccc3)[C@]3(O)C[C@H](OC(=O)[C@H](O)[C@@H](NC(=O)c4ccccc4)c4ccccc4)C(C)=C1C3(C)C)[C@]1(OC(C)=O)CO[C@@H]1C[C@@H]2O` [paclitaxel, reference compound]: the IC50 in assay [2] (setting [5]) stood at 0.004 µM.
With `CCC1=C[C@@H]2CN(C1)Cc1c([nH]c3ccccc13)[C@@](C(=O)OC)(c1cc3c(cc1OC)N(C)[C@H]1[C@@](O)(C(=O)OC)[C@H](OC(C)=O)[C@]4(CC)C=CCN5CC[C@]31[C@@H]54)C2` [vinorelbine, reference compound], the IC50 in assay [2] (setting [5]) was determined as 0.004 µM.
